Laboratory results from patent US9963462B2 (priority 2015, dated 2018).

Experiments:
[1] = biological target: SNAP-hSPR (sepiapterin reductase, SPR) (Homo sapiens, UniProt P35270); test: biochemical; type: binding; settings: terbium labelled SNAP-hSPR / SSZ labelled SNAP-EGFP; read-out: hTR-FRET IC50
Text: TR-FRET Assay: A TR-FRET (homogeneous, time-resolved, fluorescence resonance energy transfer) assay was used to assess activity of compounds following standard assay conditions. […] Compounds were screened at different concentrations and IC50 values calculated.
Terbium labelled SNAP-hSPR and SSZ (sulfasalazine) labelled SNAP-EGFP were used as the protein pair in this assay. Compounds were screened at different concentrations, and 1050 and Kd values calculated.

[2] = system: BH4 levels in SK-N-BE (2) cells; test: SKN-N-BE (2) cellular assay, BH4 levels by LC-MS; type: cell-based; settings: Homo sapiens, SKNBE2, read-out: SK-N-BE(2) IC50, SK-N-BE (2) cells, BH4 levels by LC-MS
[3] = system: BH4 production in human peripheral blood mononuclear cells (PBMCs); test: hPBMC assay, inhibition of BH4 production by LC-MS (anti-CD3/anti-CD28 stimulated); type: cell-based; settings: PBMC, read-out: hPBMC IC50

Sequence of SNAP-hSPR (sepiapterin reductase, SPR) (P35270 whole entry): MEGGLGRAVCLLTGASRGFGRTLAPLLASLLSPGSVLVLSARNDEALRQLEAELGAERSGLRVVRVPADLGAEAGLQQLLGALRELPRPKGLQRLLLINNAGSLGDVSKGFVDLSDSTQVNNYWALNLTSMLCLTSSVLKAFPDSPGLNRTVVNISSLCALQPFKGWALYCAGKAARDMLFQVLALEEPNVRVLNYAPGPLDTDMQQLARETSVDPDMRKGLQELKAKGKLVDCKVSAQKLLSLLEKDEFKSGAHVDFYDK

## Cc1c(C(=O)N2CCC(C3(C#N)CC3)CC2)cnn1-c1nn2cccc2c(=O)[nH]1 [Q-0817]
[1]
  IC50: 1 nM
[2]
  IC50: 200 nM
[3]
  IC50: 44 nM

## CC[C@H](C#N)C1CCN(C(=O)c2cnn(-c3nc4c(c(=O)[nH]3)CCC4)c2C)CC1 [Q-1041]
[1]
  IC50: 1 nM
[2]
  IC50: 46 nM
[3]
  IC50: 28 nM

## Cc1c(C(=O)N2CCN(C3CC3)CC2)cnn1-c1nn2cccc2c(=O)[nH]1 [Q-0764]
[1]
  IC50: 2 nM
[2]
  IC50: 300 nM
[3]
  IC50: 100 nM

## CCC1(C#N)CCN(C(=O)c2cnn(-c3nc4c(c(=O)[nH]3)CCC4)c2C)CC1 [Q-0519]
[1]
  IC50: 3 nM
[2]
  IC50: 53 nM
[3]
  IC50: 120 nM

## Cc1c(C(=O)N2CCN(C(C)(C)C)CC2)cnn1-c1nn2cccc2c(=O)[nH]1 [Q-0888]
[1]
  IC50: 5 nM
[2]
  IC50: 400 nM
[3]
  IC50: 240 nM

## Cc1c(C(=O)N2CCC(C3(C(F)(F)F)CC3)CC2)cnn1-c1nn2cccc2c(=O)[nH]1 [Q-0944]
[1]
  IC50: 1 nM
[2]
  IC50: 28 nM
[3]
  IC50: 36 nM

## CCC(C#N)C1(O)CCN(C(=O)c2cnn(-c3nn4cccc4c(=O)[nH]3)c2C)CC1 (stereo not drawn) [Q-1055]
[1]
  IC50: 1 nM
[2]
  IC50: 700 nM
[3]
  IC50: 160 nM

## CCC(C#N)C1CCN(C(=O)c2cnn(-c3nc4c(c(=O)[nH]3)CCC4)c2C)CC1 (stereo not drawn) [Q-0572]
[1]
  IC50: 2 nM
[2]
  IC50: 36 nM
[3]
  IC50: 24 nM

## Cc1c(C(=O)N2CC3CCC(C2)C3(O)C(F)(F)F)cnn1-c1nn2cccc2c(=O)[nH]1 (stereo not drawn) [Q-0837]
[1]
  IC50: 1 nM
[2]
  IC50: 200 nM
[3]
  IC50: 63 nM

## Cc1c(C(=O)N2CC[C@H](N(C)C(=O)OC(C)(C)C)C2)cnn1-c1nn2cccc2c(=O)[nH]1 [Q-0851]
[1]
  IC50: 2 nM
[2]
  IC50: 500 nM
[3]
  IC50: 130 nM

## Cc1c(C(=O)N2CCN(CC(F)(F)F)CC2)nnn1-c1nn2cccc2c(=O)[nH]1 [Q-1007]
[1]
  IC50: 1 nM
[2]
  IC50: 500 nM
[3]
  IC50: 120 nM

## CCC(C#N)C1(F)CCN(C(=O)c2cnn(-c3nn4cccc4c(=O)[nH]3)c2C)CC1 (stereo not drawn) [Q-1047]
[1]
  IC50: 1 nM
[2]
  IC50: 200 nM
[3]
  IC50: 66 nM

## Cc1c(C(=O)N2CCC(C(C#N)CCF)CC2)cnn1-c1nc2c(c(=O)[nH]1)CCC2 (stereo not drawn) [Q-1063]
[1]
  IC50: 2 nM
[2]
  IC50: 55 nM
[3]
  IC50: 120 nM

## Cc1c(C(=O)N2CCC(C(O)C(F)(F)F)CC2)cnn1-c1nc2c(c(=O)[nH]1)CCC2 (stereo not drawn) [Q-1067]
[1]
  IC50: 2 nM
[2]
  IC50: 100 nM
[3]
  IC50: 160 nM

## Cc1c(C(=O)N2CCC(CC#N)CC2)cnn1-c1nn2cccc2c(=O)[nH]1 [Q-0825]
[1]
  IC50: 2 nM
[2]
  IC50: 400 nM
[3]
  IC50: 150 nM

## CCC(O)(C1CCN(C(=O)c2cnn(-c3nn4cccc4c(=O)[nH]3)c2C)CC1)C(F)(F)F (stereo not drawn) [Q-1052]
[1]
  IC50: 1 nM
[2]
  IC50: 44 nM
[3]
  IC50: 83 nM

## Cc1c(C(=O)N2CCC3(CC2)CN(C(=O)OC(C)(C)C)C3)cnn1-c1nc2c(c(=O)[nH]1)CCC2 [Q-0924]
[1]
  IC50: 2 nM
[2]
  IC50: 200 nM
[3]
  IC50: 51 nM

## Cc1c(C(=O)N2CCN(C(=O)OC(C)(C)C)C(C)C2)cnn1-c1nn2cccc2c(=O)[nH]1 (stereo not drawn) [Q-0887]
[1]
  IC50: 1 nM
[2]
  IC50: 200 nM
[3]
  IC50: 57 nM

## Cc1c(C(=O)N2CCC(C#N)(c3ccccn3)CC2)cnn1-c1nn2cccc2c(=O)[nH]1 [Q-0952]
[1]
  IC50: 1 nM
[2]
  IC50: 300 nM
[3]
  IC50: 83 nM

## Cc1c(C(=O)N2CCC(C(C#N)CCF)CC2)cnn1-c1nn2cccc2c(=O)[nH]1 (stereo not drawn) [Q-1062]
[1]
  IC50: 1 nM
[2]
  IC50: 100 nM
[3]
  IC50: 97 nM

## Cc1c(C(=O)N2CC(F)(c3ccccc3)C2)cnn1-c1nn2cccc2c(=O)[nH]1 [Q-1038]
[1]
  IC50: 2 nM
[2]
  IC50: 300 nM
[3]
  IC50: 340 nM

## Cc1c(C(=O)N2CCC(C)(C#N)CC2)cnn1-c1nc2c(c(=O)[nH]1)CCC2 [Q-0518]
[1]
  IC50: 3 nM
[2]
  IC50: 500 nM
[3]
  IC50: 32 nM

## Cc1c(C(=O)N2CC(N3CCCC(F)(F)C3)C2)cnn1-c1nn2cccc2c(=O)[nH]1 [Q-0993]
[1]
  IC50: 3 nM
[2]
  IC50: 1100 nM
[3]
  IC50: 160 nM

## Cc1c(C(=O)N2CCC(C(C)C#N)CC2)cnn1-c1nn2cccc2c(=O)[nH]1 (stereo not drawn) [Q-0849]
[1]
  IC50: 1 nM
[2]
  IC50: 300 nM
[3]
  IC50: 44 nM

## Cc1c(C(=O)N2CCN(c3ccc(C(F)(F)F)cn3)CC2)cnn1-c1nn2cccc2c(=O)[nH]1 [Q-0836]
[1]
  IC50: 5 nM
[2]
  IC50: 300 nM
[3]
  IC50: 52 nM

## Cc1c(C(=O)N2C[C@@H]3C[C@H]2CN3Cc2ccccc2)cnn1-c1nn2cccc2c(=O)[nH]1 [Q-1033]
[1]
  IC50: 8 nM
[2]
  IC50: 400 nM
[3]
  IC50: 260 nM

## Cc1c(C(=O)N2CC3(CCN(C(=O)OC(C)(C)C)CC3)C2)cnn1-c1nn2cccc2c(=O)[nH]1 [Q-0772]
[1]
  IC50: 1 nM
[2]
  IC50: 200 nM
[3]
  IC50: 72 nM

## Cc1c(C(=O)N2CCC(N3CCC(F)(F)CC3)CC2)cnn1-c1nn2cccc2c(=O)[nH]1 [Q-0995]
[1]
  IC50: 2 nM
[2]
  IC50: 600 nM
[3]
  IC50: 180 nM

## Cc1c(C(=O)N2CC3CC(F)(F)C3C2)cnn1-c1nn2cccc2c(=O)[nH]1 (stereo not drawn) [Q-0804]
[1]
  IC50: 1 nM
[2]
  IC50: 300 nM
[3]
  IC50: 94 nM

## Cc1c(C(=O)N2CCc3ccccc3C2)cnn1-c1nc2cc[nH]c2c(=O)[nH]1 [Q-0378]
[1]
  IC50: 30 nM
[2]
  IC50: 4100 nM
[3]
  IC50: 740 nM

## Cc1c(C(=O)N2CCN(CC(F)(F)F)C(C)C2)cnn1-c1nn2cccc2c(=O)[nH]1 (stereo not drawn) [Q-0908]
[1]
  IC50: 1 nM
[2]
  IC50: 300 nM
[3]
  IC50: 130 nM

## Cc1c(C(=O)N2CCC(C(=O)N3CCCC3)(C(F)(F)F)CC2)cnn1-c1nn2cccc2c(=O)[nH]1 [Q-1046]
[1]
  IC50: 1 nM
[2]
  IC50: 100 nM
[3]
  IC50: 83 nM

## Cc1c(C(=O)N2CCC(C3CC3)CC2)cnn1-c1nc2c(c(=O)[nH]1)CCC2 [Q-0451]
[1]
  IC50: 2 nM
[2]
  IC50: 19 nM
[3]
  IC50: 13 nM

## O=C(c1cnn(-c2nc3c(c(=O)[nH]2)COC3)c1)N1CCC(C(F)(F)F)CC1 [Q-0453, 2-{4-[4-(trifluoromethyL)piperidine-1-carbonyl]-1H-pyrazol-1-yl}-3H,4H,5H,7H-furo[3,4-d]pyrimidin-4-one]
[1]
  IC50: 6 nM
[2]
  IC50: 1600 nM
[3]
  IC50: 1300 nM

## Cc1c(C(=O)N2CCC(C(F)(F)F)CC2C)cnn1-c1nc2c(c(=O)[nH]1)CCC2 (stereo not drawn) [Q-0423]
[1]
  IC50: 5 nM
[2]
  IC50: 100 nM
[3]
  IC50: 410 nM

## CCC(C1CCN(C(=O)c2cnn(-c3nn4cccc4c(=O)[nH]3)c2C)CC1)C(F)(F)F (stereo not drawn) [Q-1051]
[1]
  IC50: 1 nM
[2]
  IC50: 53 nM
[3]
  IC50: 27 nM

## Cc1c(C(=O)N2CCC3(CC2)CC3)nnn1-c1nn2cccc2c(=O)[nH]1 [Q-1005]
[1]
  IC50: 1 nM
[2]
  IC50: 300 nM
[3]
  IC50: 100 nM

## Cc1c(C(=O)N2CC(F)(F)C2)cnn1-c1nn2cccc2c(=O)[nH]1 [Q-0789]
[1]
  IC50: 8 nM
[2]
  IC50: 2500 nM
[3]
  IC50: 440 nM

## Cc1c(C(=O)N2CCC(C)(C#N)CC2)cnn1-c1nn2cccc2c(=O)[nH]1 [Q-0800]
[1]
  IC50: 2 nM
[2]
  IC50: 600 nM
[3]
  IC50: 47 nM

## Cc1c(C(=O)N2CCC(c3nc(-c4ccccc4)cs3)CC2)cnn1-c1nc2c(c(=O)[nH]1)CCC2 [Q-1056]
[1]
  IC50: 3 nM
[2]
  IC50: 16 nM
[3]
  IC50: 55 nM

## Cc1c(C(=O)N2CCC3(CC2)CN(C(=O)OC(C)(C)C)C3)cnn1-c1nn2cccc2c(=O)[nH]1 [Q-0768]
[1]
  IC50: 2 nM
[2]
  IC50: 200 nM
[3]
  IC50: 45 nM

## Cc1c(C(=O)N2CCN3CCC[C@@H]3C2)cnn1-c1nn2cccc2c(=O)[nH]1 [Q-0693]
[1]
  IC50: 3 nM
[2]
  IC50: 800 nM
[3]
  IC50: 450 nM

## Cc1c(C(=O)N2C[C@@H]3CCC(F)(F)[C@@H]3C2)cnn1-c1nn2cccc2c(=O)[nH]1 [Q-0896]
[1]
  IC50: 1 nM
[2]
  IC50: 300 nM
[3]
  IC50: 49 nM

## Cc1c(C(=O)N2CCN(C(=O)OC(C)(C)C)C[C@H]2C)cnn1-c1nn2cccc2c(=O)[nH]1 [Q-0892]
[1]
  IC50: 2 nM
[2]
  IC50: 400 nM
[3]
  IC50: 76 nM

## Cc1c(C(=O)N2CCC(C#N)(CC(F)(F)F)CC2)cnn1-c1nn2cccc2c(=O)[nH]1 [Q-0986]
[1]
  IC50: 2 nM
[2]
  IC50: 700 nM
[3]
  IC50: 110 nM

## Cc1c(C(=O)N2CCN(C(=O)OC(C)(C)C)[C@H](C)C2)cnn1-c1nn2cccc2c(=O)[nH]1 [Q-0899]
[1]
  IC50: 1 nM
[2]
  IC50: 300 nM
[3]
  IC50: 48 nM

## Cc1c(C(=O)N2CCC(C(O)(C(F)(F)F)C(F)(F)F)CC2)cnn1-c1nn2cccc2c(=O)[nH]1 [Q-0721]
[1]
  IC50: 1 nM
[2]
  IC50: 35 nM
[3]
  IC50: 26 nM

## Cc1c(C(=O)N2CCC(C3(C#N)CC3)CC2)cnn1-c1nc2c(c(=O)[nH]1)CCC2 [Q-0948]
[1]
  IC50: 1 nM
[2]
  IC50: 100 nM
[3]
  IC50: 53 nM

## COC1(C)CCN(C(=O)c2cnn(-c3nn4cccc4c(=O)[nH]3)c2C)CC1 [Q-0973]
[1]
  IC50: 1 nM
[2]
  IC50: 700 nM
[3]
  IC50: 80 nM

## Cc1c(C(=O)N2CCN(CC(F)(F)F)CC2)cnn1-c1nc2c(c(=O)[nH]1)CCC2 [Q-0737]
[1]
  IC50: 5 nM
[2]
  IC50: 200 nM
[3]
  IC50: 37 nM

## Cc1c(C(=O)N2CCC3(CC2)CC3C(=O)N(C)C2CC2)cnn1-c1nn2cccc2c(=O)[nH]1 (stereo not drawn) [Q-0930]
[1]
  IC50: 1 nM
[2]
  IC50: 300 nM
[3]
  IC50: 58 nM

## Cc1c(C(=O)N2CCN(CC#N)CC2)cnn1-c1nn2cccc2c(=O)[nH]1 [Q-0918]
[1]
  IC50: 2 nM
[2]
  IC50: 600 nM
[3]
  IC50: 120 nM

## Cc1c(C(=O)N2CCN(C(=O)OC(C)(C)C)CC2)cnn1-c1nn2cccc2c(=O)[nH]1 [Q-0750]
[1]
  IC50: 3 nM
[2]
  IC50: 500 nM
[3]
  IC50: 180 nM

## Cc1c(C(=O)N2CCN(C(=O)OC(C)(C)C)C[C@@H]2C)cnn1-c1nn2cccc2c(=O)[nH]1 [Q-0915]
[1]
  IC50: 2 nM
[2]
  IC50: 500 nM
[3]
  IC50: 92 nM

## Cc1c(C(=O)N2CC(C)(NC(=O)OC(C)(C)C)C2)cnn1-c1nn2cccc2c(=O)[nH]1 [Q-0867]
[1]
  IC50: 2 nM
[2]
  IC50: 400 nM
[3]
  IC50: 70 nM
